Test results reported in patent US7566733B2, “Benzimidazole derivatives useful as selective androgen receptor modulators (sarms)” (priority 2004, dated 2009).

Test system: castrated male Sprague Dawley rats
Experiment: Ventral Prostate and Seminal Vesicle Weight In Vivo Assay; note: key: active: the non weight adjusted prostate weight was ≦40 mg or the % Inhibition prostate weight, body weight adjusted was ≧40%@2 mg/day dosage; inactive: did not meet the specified criteria defined above
Conditions: inhibition of testosterone-enhanced prostate weight; immature castrated rats, once daily for five days, usually orally 40 mg/kg, with testosterone propionate 2 mg/kg s.c.
Experimental: Ventral Prostate and Seminal Vesicle Weight In Vivo Assay; note: key: active: the non weight adjusted prostate weight was ≦40 mg or the % Inhibition prostate weight, body weight adjusted was ≧40%@2 mg/day dosage; inactive: did not meet the specified criteria defined above
Immature (approximately 50 g) castrated male Sprague Dawley rats (Charles River) were treated once daily for five days with test compound (usually given orally at 40 mg/kg in a volume of 0.3 mL, in 30% cyclodextrin or 0.5% methylcellulose vehicle) and with testosterone propionate (given subcutaneously by injection at the nape of the neck at 2 mg/kg, in a volume of 0.1 mL in sesame oil). On the sixth day, the rats were euthanized by asphyxiation in carbon dioxide. Ventral prosatates and seminal vesicles were removed and their wet weights determined. Test compound activity was determined as the percent inhibition of testosterone-enhanced tissue weights, with a vehicle-treated control group set to zero percent and a testosterone alone-treated control group set to 100%.
Representative compounds of the present invention were tested according to the procedure described, with results as listed in Table 7 below. A test compound is listed as “active” if the non weight adjusted prostate weight was ≦40 mg or the % Inhibition prostate weight, body weight adjusted was ≧40%@2 mg/day dosage. ID50's, if determined, of ≦15 mg/day also indicated an “active” compound.

Row | Compound | Activity
1 | Fc1ccc(Cn2c(CC(F)(F)F)nc3cc(Cl)c(Cl)cc32)cc1 [Compound 89, 5,6-Dichloro-1-(4-fluoro-benzyl)-2-(2,2,2-trifluoro-ethyl)-1H-benzoimidazole] | active
2 | COc1ccccc1C(=O)Cn1c(CC(F)(F)F)nc2cc(Cl)c(Cl)cc21 [Compound 90, 2-[5,6-Dichloro-2-(2,2,2-trifluoro-ethyl)-benzoimidazol-1-yl]-1-(2-methoxy-phenyl)-ethanone] | inactive
3 | O=C(Cn1c(CC(F)(F)F)nc2cc(Cl)c(Cl)cc21)c1cccs1 [Compound 91, 2-[5,6-Dichloro-2-(2,2,2-trifluoro-ethyl)-benzoimidazol-1-yl]-1-thiophen-2-yl-ethanone] | active
4 | O=C(Cn1c(CC(F)(F)F)nc2cc(Cl)c(Cl)cc21)c1ccccn1 [Compound 92, 2-[5,6-Dichloro-2-(2,2,2-trifluoro-ethyl)-benzoimidazol-1-yl]-1-pyridin-2-yl-ethanone] | active
5 | FC(F)(F)Cc1nc2cc(Cl)c(Cl)cc2n1Cc1cccc(C(F)(F)F)c1 [Compound 93, 5,6-Dichloro-2-(2,2,2-trifluoro-ethyl)-1-(3-trifluoromethyl-benzyl)-1H-benzoimidazole] | active
6 | Fc1c(F)c(F)c(Cn2c(CC(F)(F)F)nc3cc(Cl)c(Cl)cc32)c(F)c1F [Compound 94, 5,6-Dichloro-1-pentafluorophenylmethyl-2-(2,2,2-trifluoro-ethyl)-1H-benzoimidazole] | inactive
7 | Cc1cccc(Cn2c(CC(F)(F)F)nc3cc(Cl)c(Cl)cc32)c1 [Compound 95, 5,6-Dichloro-1-(3-methyl-benzyl)-2-(2,2,2-trifluoro-ethyl)-1H-benzoimidazole] | inactive
8 | O=C(Cn1c(CC(F)(F)F)nc2cc(Cl)c(Cl)cc21)c1cccc([N+](=O)[O-])c1 [Compound 96, 2-[5,6-Dichloro-2-(2,2,2-trifluoro-ethyl)-benzoimidazol-1-yl]-1-(3-nitro-phenyl)-ethanone] | inactive
9 | FC(F)(F)Cc1nc2cc(Cl)c(Cl)cc2n1Cc1ccccc1 [Compound 97, 1-Benzyl-5,6-dichloro-2-(2,2,2-trifluoro-ethyl)-1H-benzoimidazole] | active
10 | OCCn1c(CC(F)(F)F)nc2cc(Cl)c(Cl)cc21 [Compound 98, 2-[5,6-Dichloro-2-(2,2,2-trifluoro-ethyl)-benzoimidazol-1-yl]-ethanol] | active
11 | FC(F)(F)Cc1nc2cc(Cl)c(Cl)cc2n1Cc1cccnc1 [Compound 99, 5,6-Dichloro-1-pyridin-3-ylmethyl-2-(2,2,2-trifluoro-ethyl)-1H-benzoimidazole] | active
12 | FC(F)(F)Cc1nc2cc(Cl)c(Cl)cc2n1Cc1ccc(C(F)(F)F)cc1 [Compound 100, 5,6-Dichloro-2-(2,2,2-trifluoro-ethyl)-1-(4-trifluoromethyl-benzyl)-1H-benzoimidazole] | active
13 | FC(F)(F)Cc1nc2cc(Cl)c(Cl)cc2n1Cc1ccc(OC(F)(F)F)cc1 [Compound 101, 5,6-Dichloro-2-(2,2,2-trifluoro-ethyl)-1-(4-trifluoromethoxy-benzyl)-1H-benzoimidazole] | inactive
14 | FC(F)(F)Cc1nc2cc(Cl)c(Cl)cc2n1Cc1ccccn1 [Compound 102, 5,6-Dichloro-1-pyridin-2-ylmethyl-2-(2,2,2-trifluoro-ethyl)-1H-benzoimidazole] | active
15 | O=C(Cn1c(CC(F)(F)F)nc2cc(Cl)c(Cl)cc21)c1ccc2c(c1)OCCO2 [Compound 104, 2-[5,6-Dichloro-2-(2,2,2-trifluoro-ethyl)-benzoimidazol-1-yl]-1-(2,3-dihydro-benzo[1,4]dioxin-6-yl)-ethanone] | inactive
16 | O=[N+]([O-])c1ccc(Cn2c(CC(F)(F)F)nc3cc(Cl)c(Cl)cc32)cc1 [Compound 105, 5,6-Dichloro-1-(4-nitro-benzyl)-2-(2,2,2-trifluoro-ethyl)-1H-benzoimidazole] | active

Row | Compound | Activity
17 | CO[C@@](C(=O)OC(c1nc2cc(Cl)c(Cl)cc2[nH]1)C(F)(F)F)(c1ccccc1)C(F)(F)F (stereo partly shown) [Compound 106] | active
18 | FC(F)(F)Cc1nc2cc(Cl)c(Cl)cc2n1Cc1ccncc1 [Compound 108, 5,6-Dichloro-1-pyridin-4-ylmethyl-2-(2,2,2-trifluoro-ethyl)-1H-benzoimidazole] | active
19 | N#Cc1cccc(Cn2c(CC(F)(F)F)nc3cc(Cl)c(Cl)cc32)c1 [Compound 109, 3-[5,6-Dichloro-2-(2,2,2-trifluoro-ethyl)-benzoimidazol-1-ylmethyl]-benzonitrile] | active
20 | N#Cc1ccccc1Cn1c(CC(F)(F)F)nc2cc(Cl)c(Cl)cc21 [Compound 110, 2-[5,6-Dichloro-2-(2,2,2-trifluoro-ethyl)-benzoimidazol-1-ylmethyl]-benzonitrile] | active
21 | Cc1cc2nc(C(O)C(F)(F)F)[nH]c2cc1C (stereo not shown) [Compound 111, 1-(5,6-Dimethyl-1H-benzoimidazol-2-yl-)2,2,2-trifluoro-ethanol] | inactive
22 | OC(c1nc2cc(Cl)c(F)cc2[nH]1)C(F)(F)F (stereo not shown) [Compound 112, 1-(5-Chloro-6-fluoro-1H-benzoimidazol-2-yl-)2,2,2-trifluoro-ethanol] | active
23 | OC(c1nc2cc(F)c(F)cc2[nH]1)C(F)(F)F (stereo not shown) [Compound 113, 1-(5,6-Difluoro-1H-benzoimidazol-2-yl-)2,2,2-trifluoro-ethanol] | inactive
24 | O=C(c1nc2cc(Cl)c(Cl)cc2[nH]1)C(F)(F)F [Compound 114, 1-(5,6-DiChloro-1H-benzoimidazol-2-yl)-2,2,2-trifluoro-ethanone] | active
25 | Fc1ccc(OCCn2c(CC(F)(F)F)nc3cc(Cl)c(Cl)cc32)cc1 [Compound 115, 5,6-Dichloro-1-[2-(4-fluoro-phenoxy)-ethyl]-2-(2,2,2-trifluoro-ethyl)-1H-benzoimidazole] | active
26 | N#Cc1ccc(Cn2c(CC(F)(F)F)nc3cc(Cl)c(Cl)cc32)cc1 [Compound 116, 4-[5,6-Dichloro-2-(2,2,2-trifluoro-ethyl)-benzoimidazol-1-ylmethyl]-benzonitrile] | active
27 | Fc1ccccc1Cn1c(CC(F)(F)F)nc2cc(Cl)c(Cl)cc21 [Compound 117, 5,6-Dichloro-1-(2-fluoro-benzyl)-2-(2,2,2-trifluoro-ethyl)-1H-benzoimidazole] | active
28 | Fc1cccc(Cn2c(CC(F)(F)F)nc3cc(Cl)c(Cl)cc32)c1 [Compound 119, 5,6-Dichloro-1-(3-fluoro-benzyl)-2-(2,2,2-trifluoro-ethyl)-1H-benzoimidazole] | active
29 | FC(F)(F)Cc1nc2cc(Cl)c(Cl)cc2n1Cc1cccc(Cl)c1 [Compound 120, 5,6-Dichloro-1-(3-chloro-benzyl)-2-(2,2,2-trifluoro-ethyl)-1H-benzoimidazole] | active
30 | FC(F)(F)Cc1nc2cc(Cl)c(Cl)cc2n1Cc1ccc(Cl)cc1 [Compound 121, 5,6-Dichloro-1-(4-chloro-benzyl)-2-(2,2,2-trifluoro-ethyl)-1H-benzoimidazole] | active
31 | Fc1cccc(OCCn2c(CC(F)(F)F)nc3cc(Cl)c(Cl)cc32)c1 [Compound 123, 5,6-Dichloro-1-[2-(3-fluoro-phenoxy)-ethyl]-2-(2,2,2-trifluoro-ethyl)-1H-benzoimidazole] | inactive
